Laboratory results as given in paper PMC6934184, “Selective DNA-PKcs inhibition extends the therapeutic index of localized radiotherapy and chemotherapy” (The Journal of Clinical Investigation, 2019).

Target: T1, CSNK1G3 (CK1 gamma 3) (Homo sapiens, UniProt Q9Y6M4)
T1 construct: purchased Thermo Fisher Scientific (Life Technologies) SelectScreen
Test: SelectScreen Z'LYTE
Assay type: biochemical
In short: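 NU5455 was profiled across the SelectScreen Broad panel of kinase activity and binding assays. Z'LYTE reactions such as CSF1R ran at apparent Km ATP, while the Adapta CAMK1 assay used ATP listed as 10. Values are given as percent.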

T1 sequence (Q9Y6M4 whole entry): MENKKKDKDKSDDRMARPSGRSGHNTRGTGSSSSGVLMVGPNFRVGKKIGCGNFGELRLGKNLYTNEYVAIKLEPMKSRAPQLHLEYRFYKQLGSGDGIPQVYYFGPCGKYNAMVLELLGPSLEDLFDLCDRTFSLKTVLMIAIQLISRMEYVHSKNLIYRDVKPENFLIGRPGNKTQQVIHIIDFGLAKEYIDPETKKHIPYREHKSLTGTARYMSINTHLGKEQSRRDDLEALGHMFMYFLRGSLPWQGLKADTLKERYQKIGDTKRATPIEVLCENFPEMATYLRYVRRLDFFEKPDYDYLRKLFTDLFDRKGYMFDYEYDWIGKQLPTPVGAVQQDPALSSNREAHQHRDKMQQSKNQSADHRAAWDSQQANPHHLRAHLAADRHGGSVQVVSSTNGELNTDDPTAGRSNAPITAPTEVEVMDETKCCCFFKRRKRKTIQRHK

Structure (SMILES): CN(C(=O)CN1CCOCC1)c1ccc2sc3c(-c4cccc5c(=O)cc(N6CC7CCC(C6)O7)oc45)cccc3c2c1 [NU5455]
- inhibition at 1 µM: 4.2%
